# Test results from patent US20230085307A1, “PYRIDAZINONE COMPOUND AND HERBICIDE” (NISSAN CHEMICAL CORPORATION, priority 2019, published 2023).
# Columns and labels:
# late watergrass = assay: Test Example 1: herbicidal activity, application before weed generation under submerged conditions (Table 16, symbol A); format: in vivo, late watergrass (Echinochloa oryzicola); details: 320 g/ha applied herbicide
# How it was run: (§1)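 Submerged Wagner pots (alluvial soil, 4 cm water) sown with weed seeds and planted with 2.5-leaf rice seedlings; emulsifiable concentrate diluted in water applied to water surface on sowing day. Held in greenhouse at 25-30 °C; injury scored 0-5 by herbicidal rate after three weeks.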
# Japanese bulrush = assay: Test Example 1: herbicidal activity, application before weed generation under submerged conditions (Table 16, symbol B); format: in vivo, Japanese bulrush (Schoenoplectus juncoides); details: 320 g/ha applied herbicide
# How it was run: as §1
# oval-leafed pondweed = assay: Test Example 1: herbicidal activity, application before weed generation under submerged conditions (Table 16, symbol C); format: in vivo, oval-leafed pondweed (Monochoria vaginalis); details: 320 g/ha applied herbicide
# How it was run: as §1
# barnyard grass [1] = assay: Test Example 3: herbicidal effect by foliage application, Wagner pot (Table 18, symbol H); format: in vivo, barnyard grass (Echinochloa crus-galli); details: 320 g/ha
# How it was run: (§2)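 Plants were sown in alluvial soil held under 0.1–0.5 cm standing water and grown 14 days in a greenhouse at 25–30 °C. An emulsifiable formulation, water-diluted to the set dose, was then sprayed onto the foliage, and effects were scored three weeks later using previously defined criteria.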
# Chinese sprangletop = assay: Test Example 3: herbicidal effect by foliage application, Wagner pot (Table 18, symbol D); format: in vivo, chinese sprangletop (Leptochloa chinensis); details: 320 g/ha
# How it was run: as §2
# rice flat sedge = assay: Test Example 3: herbicidal effect by foliage application, Wagner pot (Table 18, symbol E); format: in vivo, rice flat sedge (Cyperus iria); details: 320 g/ha
# How it was run: as §2
# southern crabgrass [2] = assay: Test Example 4: herbicidal effect by soil treatment (Table 19, symbol F); format: in vivo, southern crabgrass (Digitaria ciliaris); details: amount of applied herbicide 320 g/ha
# How it was run: (§3)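 Herbicidal effect was rated 3 weeks after treatment, using the scoring criteria of an earlier test. The compound, formulated as an emulsion and diluted in water to a set herbicide amount, had been sprayed uniformly on soil over freshly sown seeds. Growth took place in a greenhouse at 25° C. to 30° C.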
# green foxtail [3] = assay: Test Example 4: herbicidal effect by soil treatment (Table 19, symbol G); format: in vivo, green foxtail (Setaria viridis); details: amount of applied herbicide 320 g/ha
# How it was run: as §3
# barnyard grass [4] = assay: Test Example 4: herbicidal effect by soil treatment (Table 19, symbol H); format: in vivo, barnyard grass (Echinochloa crus-galli); details: amount of applied herbicide 320 g/ha
# How it was run: as §3
# wild oat [5] = assay: Test Example 4: herbicidal effect by soil treatment (Table 19, symbol I); format: in vivo, wild oat (Avena fatua); details: amount of applied herbicide 320 g/ha
# How it was run: as §3
# blackgrass [6] = assay: Test Example 4: herbicidal effect by soil treatment (Table 19, symbol J); format: in vivo, blackgrass (Alopecurus myosuroides); details: amount of applied herbicide 320 g/ha
# How it was run: as §3
# Italian ryegrass [7] = assay: Test Example 4: herbicidal effect by soil treatment (Table 19, symbol K); format: in vivo, Italian ryegrass (Lolium multiflorum); details: amount of applied herbicide 320 g/ha
# How it was run: as §3
# windgrass [8] = assay: Test Example 4: herbicidal effect by soil treatment (Table 19, symbol L); format: in vivo, windgrass (Apera spica-venti); details: amount of applied herbicide 320 g/ha
# How it was run: as §3
# velvetleaf [9] = assay: Test Example 4: herbicidal effect by soil treatment (Table 19, symbol M); format: in vivo, velvetleaf (Abutilon theophrasti); details: amount of applied herbicide 320 g/ha
# How it was run: as §3
# redroot pigweed [10] = assay: Test Example 4: herbicidal effect by soil treatment (Table 19, symbol N); format: in vivo, redroot pigweed (Amaranthus retroflexus); details: amount of applied herbicide 320 g/ha
# How it was run: as §3
# lambsquarters [11] = assay: Test Example 4: herbicidal effect by soil treatment (Table 19, symbol O); format: in vivo, lambsquarters (Chenopodium album); details: amount of applied herbicide 320 g/ha
# How it was run: as §3
# chickweed [12] = assay: Test Example 4: herbicidal effect by soil treatment (Table 19, symbol P); format: in vivo, common chickweed (Stellaria media); details: amount of applied herbicide 320 g/ha
# How it was run: as §3
# false cleavers = assay: Test Example 4: herbicidal effect by soil treatment (Table 19, symbol Q); format: in vivo, false cleavers (Galium spurium); details: amount of applied herbicide 320 g/ha
# How it was run: as §3
# persian speedwell [13] = assay: Test Example 4: herbicidal effect by soil treatment (Table 19, symbol R); format: in vivo, Persian speedwell (Veronica persica); details: amount of applied herbicide 320 g/ha
# How it was run: as §3
# southern crabgrass [14] = assay: Test Example 5: herbicidal effect by foliage application, plastic box (Table 20, symbol F); format: in vivo, southern crabgrass (Digitaria ciliaris); details: foliage application, 320 g/ha, three weeks after application
# How it was run: (§4)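 Foliar spray test: emulsion formulation diluted in water to a set application rate, sprayed onto 14-day-old plants raised in diluvial soil at 25° C to 30° C under glass. Both herbicidal effect and crop effect rated visually three weeks later.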
# green foxtail [15] = assay: Test Example 5: herbicidal effect by foliage application, plastic box (Table 20, symbol G); format: in vivo, green foxtail (Setaria viridis); details: foliage application, 320 g/ha, three weeks after application
# How it was run: as §4
# barnyard grass [16] = assay: Test Example 5: herbicidal effect by foliage application, plastic box (Table 20, symbol H); format: in vivo, barnyard grass (Echinochloa crus-galli); details: foliage application, 320 g/ha, three weeks after application
# How it was run: as §4
# wild oat [17] = assay: Test Example 5: herbicidal effect by foliage application, plastic box (Table 20, symbol I); format: in vivo, wild oat (Avena fatua); details: foliage application, 320 g/ha, three weeks after application
# How it was run: as §4
# blackgrass [18] = assay: Test Example 5: herbicidal effect by foliage application, plastic box (Table 20, symbol J); format: in vivo, blackgrass (Alopecurus myosuroides); details: foliage application, 320 g/ha, three weeks after application
# How it was run: as §4
# Italian ryegrass [19] = assay: Test Example 5: herbicidal effect by foliage application, plastic box (Table 20, symbol K); format: in vivo, Italian ryegrass (Lolium multiflorum); details: foliage application, 320 g/ha, three weeks after application
# How it was run: as §4
# windgrass [20] = assay: Test Example 5: herbicidal effect by foliage application, plastic box (Table 20, symbol L); format: in vivo, windgrass (Apera spica-venti); details: foliage application, 320 g/ha, three weeks after application
# How it was run: as §4
# velvetleaf [21] = assay: Test Example 5: herbicidal effect by foliage application, plastic box (Table 20, symbol M); format: in vivo, velvetleaf (Abutilon theophrasti); details: foliage application, 320 g/ha, three weeks after application
# How it was run: as §4
# redroot pigweed [22] = assay: Test Example 5: herbicidal effect by foliage application, plastic box (Table 20, symbol N); format: in vivo, redroot pigweed (Amaranthus retroflexus); details: foliage application, 320 g/ha, three weeks after application
# How it was run: as §4
# lambsquarters [23] = assay: Test Example 5: herbicidal effect by foliage application, plastic box (Table 20, symbol O); format: in vivo, lambsquarters (Chenopodium album); details: foliage application, 320 g/ha, three weeks after application
# How it was run: as §4
# chickweed [24] = assay: Test Example 5: herbicidal effect by foliage application, plastic box (Table 20, symbol P); format: in vivo, common chickweed (Stellaria media); details: foliage application, 320 g/ha, three weeks after application
# How it was run: as §4
# persian speedwell [25] = assay: Test Example 5: herbicidal effect by foliage application, plastic box (Table 20, symbol R); format: in vivo, Persian speedwell (Veronica persica); details: foliage application, 320 g/ha, three weeks after application
# How it was run: as §4
compound,measurement,setting,value
CCCC(=O)Oc1c(C)nn(C)c(=O)c1-c1c(-c2ccc(F)c(C)c2)sc2ccccc12 [1-052],Herbicidal effect on A: late watergrass (grade 0-5),late watergrass,3 (Herbicidal rate of 40% or more and less than 70%)
same,Herbicidal effect on B: Japanese bulrush (grade 0-5),Japanese bulrush,1 (Herbicidal rate of 5% or more and less than 20%)
same,Herbicidal effect on C: oval-leafed pondweed (grade 0-5),oval-leafed pondweed,3 (Herbicidal rate of 40% or more and less than 70%)
same,"herbicidal effect on H (barnyard grass), rating 0-5",barnyard grass [1],3 (Herbicidal rate of 40% or more and less than 70%)
same,"herbicidal effect on D (Chinese sprangletop), rating 0-5",Chinese sprangletop,2 (Herbicidal rate of 20% or more and less than 40%)
same,"herbicidal effect on E (rice flat sedge), rating 0-5",rice flat sedge,5 (Herbicidal rate of 90% or more (almost completely withered))
same,"herbicidal effect rating, F: southern crabgrass",southern crabgrass [2],1 (Herbicidal rate of 5% or more and less than 20%)
same,"herbicidal effect rating, G: green foxtail",green foxtail [3],4 (Herbicidal rate of 70% or more and less than 90%)
same,"herbicidal effect rating, H: barnyard grass",barnyard grass [4],3 (Herbicidal rate of 40% or more and less than 70%)
same,"herbicidal effect rating, I: wild oat",wild oat [5],0 (Herbicidal rate of 5% or less (almost no effect))
same,"herbicidal effect rating, J: blackgrass",blackgrass [6],0 (Herbicidal rate of 5% or less (almost no effect))
same,"herbicidal effect rating, K: Italian ryegrass",Italian ryegrass [7],1 (Herbicidal rate of 5% or more and less than 20%)
same,"herbicidal effect rating, L: windgrass",windgrass [8],0 (Herbicidal rate of 5% or less (almost no effect))
same,"herbicidal effect rating, M: velvetleaf",velvetleaf [9],0 (Herbicidal rate of 5% or less (almost no effect))
same,"herbicidal effect rating, N: redroot pigweed",redroot pigweed [10],0 (Herbicidal rate of 5% or less (almost no effect))
same,"herbicidal effect rating, O: lambsquarters",lambsquarters [11],2 (Herbicidal rate of 20% or more and less than 40%)
same,"herbicidal effect rating, P: chickweed",chickweed [12],4 (Herbicidal rate of 70% or more and less than 90%)
same,"herbicidal effect rating, Q: false cleavers",false cleavers,0 (Herbicidal rate of 5% or less (almost no effect))
same,"herbicidal effect rating, R: persian speedwell",persian speedwell [13],3 (Herbicidal rate of 40% or more and less than 70%)
same,"herbicidal effect grade, F: southern crabgrass",southern crabgrass [14],2 (Herbicidal rate of 20% or more and less than 40%)
same,"herbicidal effect grade, G: green foxtail",green foxtail [15],5 (Herbicidal rate of 90% or more (almost completely withered))
same,"herbicidal effect grade, H: barnyard grass",barnyard grass [16],3 (Herbicidal rate of 40% or more and less than 70%)
same,"herbicidal effect grade, I: wild oat",wild oat [17],0 (Herbicidal rate of 5% or less (almost no effect))
same,"herbicidal effect grade, J: blackgrass",blackgrass [18],0 (Herbicidal rate of 5% or less (almost no effect))
same,"herbicidal effect grade, K: Italian ryegrass",Italian ryegrass [19],0 (Herbicidal rate of 5% or less (almost no effect))
same,"herbicidal effect grade, L: windgrass",windgrass [20],0 (Herbicidal rate of 5% or less (almost no effect))
same,"herbicidal effect grade, M: velvetleaf",velvetleaf [21],5 (Herbicidal rate of 90% or more (almost completely withered))
same,"herbicidal effect grade, N: redroot pigweed",redroot pigweed [22],3 (Herbicidal rate of 40% or more and less than 70%)
same,"herbicidal effect grade, O: lambsquarters",lambsquarters [23],3 (Herbicidal rate of 40% or more and less than 70%)
same,"herbicidal effect grade, P: chickweed",chickweed [24],5 (Herbicidal rate of 90% or more (almost completely withered))
same,"herbicidal effect grade, R: persian speedwell",persian speedwell [25],1 (Herbicidal rate of 5% or more and less than 20%)
